Laboratory results: the supplement of paper PMC10307832

Legend:
Assay in all cases: relative viability (nuclei count vs DMSO), 5 days (fraction); higher = more cells survive
HOP-62 = test system: HOP-62
Outline: (§1)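 Each reported value is a median over duplicate plates. It expresses relative viability: treated-well nuclei count divided by vehicle-well nuclei count. Lung cancer cell lines in 1536-well plates were dosed by pin tool a day after seeding, alone with one drug or with a fixed anchor-drug dose plus five library-drug doses (not always all listed) in √10 steps, and nuclei were counted after 5 days.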

COR-L23 = test system: COR-L23
Outline: as §1

NCI-H441 = test system: NCI-H441
Outline: as §1

NCI-H1395 = test system: NCI-H1395
Outline: as §1

NCI-H1944 = test system: NCI-H1944
Outline: as §1

NCI-H661 = test system: NCI-H661
Outline: as §1

NCI-H2085 = test system: NCI-H2085
Outline: as §1

PC-14 = test system: PC-14
Outline: as §1

NCI-H2087 = test system: NCI-H2087
Outline: as §1

NCI-H1793 = test system: NCI-H1793
Outline: as §1

NCI-H596 = test system: NCI-H596
Outline: as §1

EPLC-272H = test system: EPLC-272H
Outline: as §1

HARA = test system: HARA
Outline: as §1

LXF-289 = test system: LXF-289
Outline: as §1

NCI-H1437 = test system: NCI-H1437
Outline: as §1

NCI-H3122 = test system: NCI-H3122
Outline: as §1

HCC-78 = test system: HCC-78
Outline: as §1

NCI-H1666 = test system: NCI-H1666
Outline: as §1

LCLC-97TM1 = test system: LCLC-97TM1
Outline: as §1

H3255 = test system: H3255
Outline: as §1

NCI-H2126 = test system: NCI-H2126
Outline: as §1

## Cc1csc(=NC2CCCCC2)n1/N=C/c1ccc(O)c(O)c1O [MIM1] + C[C@]1(O)C[C@@H](c2nc(-c3ccc4ccc(-c5ccccc5)nc4c3)c3c(N)nccn32)C1 [Linsitinib] (partner 1 µM)
HOP-62; first compound 0.2 µM
  relative viability: 0.977
HOP-62; first compound 0.6325 µM
  relative viability: 1.04
HOP-62; first compound 2 µM
  relative viability: 0.905
HOP-62; first compound 6.325 µM
  relative viability: 0.658
HOP-62; first compound 20 µM
  relative viability: 0.936
COR-L23; first compound 0.2 µM
  relative viability: 0.77
COR-L23; first compound 0.6325 µM
  relative viability: 1.12
COR-L23; first compound 2 µM
  relative viability: 1.01
COR-L23; first compound 6.325 µM
  relative viability: 0.813
COR-L23; first compound 20 µM
  relative viability: 0.498
NCI-H441; first compound 0.2 µM
  relative viability: 0.612
NCI-H441; first compound 0.6325 µM
  relative viability: 0.528
NCI-H441; first compound 2 µM
  relative viability: 0.543
NCI-H441; first compound 6.325 µM
  relative viability: 0.709
NCI-H441; first compound 20 µM
  relative viability: 0.145
NCI-H1395; first compound 0.2 µM
  relative viability: 0.927
NCI-H1395; first compound 0.6325 µM
  relative viability: 1.03
NCI-H1395; first compound 2 µM
  relative viability: 1.07
NCI-H1395; first compound 6.325 µM
  relative viability: 0.606
NCI-H1395; first compound 20 µM
  relative viability: 0.355
NCI-H1944; first compound 0.2 µM
  relative viability: 1.12
NCI-H1944; first compound 0.6325 µM
  relative viability: 1.13
NCI-H1944; first compound 2 µM
  relative viability: 0.923
NCI-H1944; first compound 6.325 µM
  relative viability: 1
NCI-H1944; first compound 20 µM
  relative viability: 1.46
NCI-H661; first compound 0.2 µM
  relative viability: 0.575
NCI-H661; first compound 0.6325 µM
  relative viability: 0.737
NCI-H661; first compound 2 µM
  relative viability: 0.547
NCI-H661; first compound 6.325 µM
  relative viability: 0.449
NCI-H661; first compound 20 µM
  relative viability: 0.255
NCI-H2085; first compound 0.2 µM
  relative viability: 1.04
NCI-H2085; first compound 0.6325 µM
  relative viability: 0.912
NCI-H2085; first compound 2 µM
  relative viability: 0.971
NCI-H2085; first compound 6.325 µM
  relative viability: 0.815
NCI-H2085; first compound 20 µM
  relative viability: 0.934
PC-14; first compound 0.2 µM
  relative viability: 0.893
PC-14; first compound 0.6325 µM
  relative viability: 0.932
PC-14; first compound 2 µM
  relative viability: 0.956
PC-14; first compound 6.325 µM
  relative viability: 0.719
PC-14; first compound 20 µM
  relative viability: 0.499
NCI-H2087; first compound 0.2 µM
  relative viability: 0.935
NCI-H2087; first compound 0.6325 µM
  relative viability: 0.833
NCI-H2087; first compound 2 µM
  relative viability: 0.989
NCI-H2087; first compound 6.325 µM
  relative viability: 0.693
NCI-H2087; first compound 20 µM
  relative viability: 0.428
NCI-H1793; first compound 0.2 µM
  relative viability: 0.799
NCI-H1793; first compound 0.6325 µM
  relative viability: 0.902
NCI-H1793; first compound 2 µM
  relative viability: 0.809
NCI-H1793; first compound 6.325 µM
  relative viability: 0.925
NCI-H1793; first compound 20 µM
  relative viability: 1.02
NCI-H596; first compound 0.2 µM
  relative viability: 0.989
NCI-H596; first compound 0.6325 µM
  relative viability: 0.989
NCI-H596; first compound 2 µM
  relative viability: 0.991
NCI-H596; first compound 6.325 µM
  relative viability: 0.857
NCI-H596; first compound 20 µM
  relative viability: 0.871
EPLC-272H; first compound 0.2 µM
  relative viability: 1.06
EPLC-272H; first compound 0.6325 µM
  relative viability: 1.15
EPLC-272H; first compound 2 µM
  relative viability: 1.17
EPLC-272H; first compound 6.325 µM
  relative viability: 1.26
EPLC-272H; first compound 20 µM
  relative viability: 0.988
HARA; first compound 0.2 µM
  relative viability: 0.9
HARA; first compound 0.6325 µM
  relative viability: 0.926
HARA; first compound 2 µM
  relative viability: 0.909
HARA; first compound 6.325 µM
  relative viability: 0.92
HARA; first compound 20 µM
  relative viability: 0.187
LXF-289; first compound 0.2 µM
  relative viability: 0.943
LXF-289; first compound 0.6325 µM
  relative viability: 0.923
LXF-289; first compound 2 µM
  relative viability: 0.943
LXF-289; first compound 6.325 µM
  relative viability: 0.787
LXF-289; first compound 20 µM
  relative viability: 0.624
NCI-H1437; first compound 0.2 µM
  relative viability: 0.967
NCI-H1437; first compound 0.6325 µM
  relative viability: 0.985
NCI-H1437; first compound 2 µM
  relative viability: 1.05
NCI-H1437; first compound 6.325 µM
  relative viability: 0.507
NCI-H1437; first compound 20 µM
  relative viability: 0.151
NCI-H3122; first compound 0.2 µM
  relative viability: 0.959
NCI-H3122; first compound 0.6325 µM
  relative viability: 1.08
NCI-H3122; first compound 2 µM
  relative viability: 1.12
NCI-H3122; first compound 6.325 µM
  relative viability: 0.926
NCI-H3122; first compound 20 µM
  relative viability: 0.396
HCC-78; first compound 0.2 µM
  relative viability: 0.551
HCC-78; first compound 0.6325 µM
  relative viability: 0.594
HCC-78; first compound 2 µM
  relative viability: 0.488
HCC-78; first compound 6.325 µM
  relative viability: 0.439
HCC-78; first compound 20 µM
  relative viability: 0.541
NCI-H1666; first compound 0.2 µM
  relative viability: 0.791
NCI-H1666; first compound 0.6325 µM
  relative viability: 0.753
NCI-H1666; first compound 2 µM
  relative viability: 0.732
NCI-H1666; first compound 6.325 µM
  relative viability: 0.606
NCI-H1666; first compound 20 µM
  relative viability: 0.526
LCLC-97TM1; first compound 0.2 µM
  relative viability: 0.171
LCLC-97TM1; first compound 0.6325 µM
  relative viability: 0.226
LCLC-97TM1; first compound 2 µM
  relative viability: 0.166
LCLC-97TM1; first compound 6.325 µM
  relative viability: 0.207
LCLC-97TM1; first compound 20 µM
  relative viability: 0.214
H3255; first compound 0.2 µM
  relative viability: 0.901
H3255; first compound 0.6325 µM
  relative viability: 0.918
H3255; first compound 2 µM
  relative viability: 0.883
H3255; first compound 6.325 µM
  relative viability: 0.637
H3255; first compound 20 µM
  relative viability: 0.406
NCI-H2126; first compound 0.2 µM
  relative viability: 0.715
NCI-H2126; first compound 0.6325 µM
  relative viability: 0.695
NCI-H2126; first compound 2 µM
  relative viability: 0.744
NCI-H2126; first compound 6.325 µM
  relative viability: 0.707
NCI-H2126; first compound 20 µM
  relative viability: 0.702
